From ChEMBL document CHEMBL1127155, “Synthesis and antiviral activity of 9-(phosphonoalkylnyloxy)purines: Novel acyclonucleotides” (Bioorg Med Chem Lett, 1993)
≈ marks a conversion by molar mass, not a printed value.

What was measured:
[1] = tested on: Human alphaherpesvirus 1; test: Tested for the concentration at which compound showed activity against its effect on replication of herpes simplex type-1 (HSV-1); assay type: functional, organism-based
[2] = tested on: Human alphaherpesvirus 3; test: Tested for the concentration at which compound showed activity against its effect on replication of varicella zoster virus; assay type: functional, organism-based
[3] = tested on: Cytomegalovirus; test: Tested for the concentration at which compound showed activity against its effect on replication of Cytomegalovirus; assay type: functional, organism-based; settings: Human betaherpesvirus 5
[4] = tested on: Human alphaherpesvirus 2; test: Tested for the concentration at which compound showed activity against its effect on replication of herpes simplex type-2 (HSV-2); assay type: functional, organism-based
[5] = tested on: MRC5; test: Tested for inhibition of DNA synthesis in MRC-5 cells; assay type: functional, cell-based; settings: Homo sapiens
[6] = tested on: Human alphaherpesvirus 1; test: Tested for concentration at which cytotoxicity was observed in herpes simplex type-1 (HSV-1); assay type: functional
[7] = tested on: Human alphaherpesvirus 1; test: Tested for its effect on replication of herpes simplex type-1 (HSV-1) at the dose up to 100 ug/mL; NE: No effect on replication; assay type: functional, organism-based
[8] = tested on: Human alphaherpesvirus 2; test: Tested for the concentration at which compound showed activity against replication of herpes simplex type-2 (HSV-2); assay type: functional, organism-based
[9] = tested on: Cytomegalovirus; test: Tested for its effect on replication of cytomegalovirus (CMV) at the dose up to 100 ug/mL; NE: No effect on replication.; assay type: functional, organism-based
[10] = tested on: Cytomegalovirus; test: Tested for its effect on replication of cytomegalovirus (CMV) at the dose up to 100 ug/mL; NE: No effect on replication; assay type: functional, organism-based

Compound	IC50 [1] [µg/mL]	IC50 [2] [µg/mL]	IC50 [3] [µg/mL]	IC50 [4] [µg/mL]	IC50 [5] [µg/mL]	Dose [6] [µg/mL]	Activity [7]	IC50 [8] [µg/mL]	Activity [9]	Activity [10]
Nc1nc(O)c2ncn(OCC#CP(=O)(O)O)c2n1	6.5 (≈ 22.8 µM)	3.2 (≈ 11.2 µM)	3.8 (≈ 13.3 µM)	3.9 (≈ 13.7 µM)	4.2 (≈ 14.7 µM)	30	–	–	–	–
Nc1ncnc2c1ncn2OCC#CP(=O)(O)O	–	–	–	–	98 (≈ 364 µM)	–	No effect	14 (≈ 52 µM)	No effect	–
Nc1nc(O)c2ncn(OCC/C(=C/Cl)P(=O)(O)O)c2n1	–	–	–	–	17 (≈ 50.6 µM)	–	No effect	25 (≈ 74.5 µM)	–	No effect
